Entries after “also recorded” stand apart in the source; their conditions may differ.
Experiments:
chick embryo = test: Toxicity to the embryo in the in ovo model; format: in vivo, chicken; conditions: 2xIC50 (DOX concentration), throughout the experiment
Experimental: (§1) (A) In ovo pictures at day 13 of embryo development and in ovo and ex ovo pictures at day 17; representative images were taken at 20x in a Zeiss stereomicroscope. (B) Graphical representation of tumor growth. Data was analyzed by one-way ANOVA and the results are representative for the mean of at least 15 eggs per group;^∗∗∗p<0.0001 ^∗p<0.05. Hs578t cells were used to establish a TNBC chicken egg model. Fertilized eggs were incubated for 9 days and, at this time, the chicken embryo is surrounded by the CAM which provides nutrients for its development. At day 13 of development, the tumor mass could be visualized and the resulting tumors were treated with 2xlC50 EBR85-functionalized nanoparticles (corresponding to DOX concentration). The same concentration of DOX was used for the group treated with DOX alone. Also, a control group treated with DMEM medium was used to evaluate tumorgrowth. […] As observed in Figure 16, a significant reduction on tumor size could be appreciated for the EBR85-treated group, comparing to the control and DOX-treated groups.

Hs-578T polyspheroids = test: 3D polyspheroid growth assay with dual treatment (formulation + AMF); format: cell-based; conditions: 2 µM relative to DOX + 1h AMF on days 1, 3 and 5; monitored 19 days
Experimental: In an embodiment, 3D spheroids were prepared. In a 96-well plate was a hot and sterile solution of 1% agarose added (100 µL) and left to cool for 30 min at 4 °C. Then, the plate was tempered and 20000 cancer cells added to each well in 120 µ L of medium. The plate was centrifugated at 800 G during 30 min to promote the formation of the spheroid. The Spheroids were incubated for one week with a medium change every 3 days, until a small dense Spheroid was formed. These spheroids were used in confocal microscopy, or to form poly-spheroids. […]
In an embodiment, growth assay was performed. […] The polyspheroids were monitored every 2 days before treatments or medium change, using an inverted phase-contrast microscope (Nikon Eclipse TS100, Nikon Corporation, Tokyo, Japan) connected to a digital camera (Nikon, DS-Fi1). […] The images were analyzed with image J and R statistical language, using R-packages imager and EBImage, to determine the area of each polyspheroids treated with each condition for every day analyzed. The growth of the polyspheroids were normalized in regards to their own initial area at the start of the experiment, and calculated as { Growth = 100 × (Area−Area^day1)/(Area^day1) [formula] }. The daily growth was calculated as {Growth^daily=(∑Growth)/(19 days)} [formula] . […]

[1] = tested on: triple negative breast cancer cells (Hs-578T); test: Resazurine cell viability assay, 2D culture, with or without magnetic hyperthermia; format: cell-based; conditions: Homo sapiens
Experimental: In an embodiment, 2D- cell culture was prepared. Hs-578T and MBA-MB-231 TNBC cell lines (ATCC HTB-126 and ATCC Htb-26, respectively) were grown in Dulbecco's Modified Eagle's Medium (DMEM) supplemented with 10% foetal bovine serum and 1% penicillin/streptomycin. THP-1 peripheral blood monocytes (ATCC TIB-202) were grown in Gibco Roswell Park Memorial Institute (RPMI) medium supplemented with 10% foetal bovine serum and 1% penicillin/streptomycin. All cell lines were incubated at 37 °C in a 5% CO2 atmosphere.
In an embodiment, cell viability was assessed. The Resazurine assay was used to calculate the cell viability. The assay is based on the reduction by living cells of the oxidized blue dye to a pink fluorescent resorufin product. […] The fluorescence of each condition was then read with an Biotek Synergy H1 plate reader, and compared to the controls using the formula {Viability = (Treated cells−blank)/(Untreated cells−blank) × 100 [formula] }. […] For each, the inhibitory concentration 50 (IC50) of each formulation was calculated using the DRC R-package. […] The activity gain (AG) for the different formulations was calculated as {AGF=100×(IC50^(free DOX) −IC50^mSLNP)/(IC50^(free DOX))} [formula] , whilst the AG of the magnetic hyperthermia event was calculated as {AGMH=100×(IC50^noHT −IC50^HT)/(IC50^noHT)} [formula] . […]

Hs-578T cells = test: Wound-healing (cell migration) assay; format: cell-based; conditions: at the IC50 DOX concentration, up to 48h
Experimental: The effect of the functionalized mSLNs AF-2 (EBR85, T-sensitive, +DOX) and AF-3 (EBR89, T-insensitive, -DOX) and reference compound (DOX) on the cell migration capability of Hs-578T cells was assessed through the wound-healing assay. mSLNs (with and without DOX) at the IC50 DOX concentration and equivalent mSLNs were used in the experiment. EBR89 (without DOX) was selected to study the effect of the nanoparticle nature on this tumorigenic feature and evaluate its toxicity. Cell migration and invasion are two hallmarks of cancer correlated to cancer progression and metastasis which correspond to a worse cancer prognosis.
Results are presented as mean ± SD of at least three independent experiments.

Hs578t tumor = test: In ovo (CAM) tumor growth model; format: in vivo, chicken; conditions: 2xIC50 (DOX concentration), treated at day 13, read at day 17
Experimental: as §1

COc1cccc2c1C(=O)c1c(O)c3c(c(O)c1C2=O)C[C@@](O)(C(=O)CO)C[C@@H]3O[C@H]1C[C@H](N)[C@H](O)[C@H](C)O1 [DOX, Doxorubicin]
toxicity to the chick embryo (chick embryo): no toxicity
polyspheroid growth (Hs-578T polyspheroids): continued to grow during the first week of treatment; also recorded: slowing down its growth
IC50 ([1]; 72h, without magnetic hyperthermia): 1600 nM
IC50 ([1]; Figure 4C experiment, EBR85 with 1h magnetic hyperthermia then 72 h, free DOX as reference): 1520 nM
cell migration capability (Hs-578T cells): very low migration capability
regression in the tumors' area (Hs578t tumor): 11%

Reference: patent publication EP4205768A1, “MAGNETIC SOLID LIPID NANOPARTICLES, METHODS AND USES THEREOF” (priority 2021, dated 2023)
